The numbers were not newly measured in US20190289805A1, “CULTURING METHOD FOR CULTURED LEGUMINOUS ROOTS HAVING INCREASED COUMESTROL CONTENT” (Amorepacific Corporation, priority 2016, published 2019), which cites them from elsewhere.

This data set concerns mouse uterus. As to conditions: oral administration.

Regarding `O=c1oc2cc(O)ccc2c2oc3cc(O)ccc3c12` [coumestrol], the estrogen effect result (mature mice) is given as “has no estrogen effect”. For the same molecule, the “estrogen effect (change in weight of uterus)” value (young female mice) is “exhibits an effective estrogen effect”.
